# Data as given in patent US10570149B2, “Tricyclic heterocylic derivatives” (MERCK PATENT GMBH, priority 2016, dated 2020).
# Columns and labels:
# ATR/ATRIP = molecular target: T1, ATR/ATRIP (Homo sapiens, UniProt Q13535); assay: ATR/ATRIP kinase assay (TR-FRET, p53 phosphorylation); assay type: biochemical; details: Table 1, class symbols; read-out: ATR-ATRIP IC50
# T1 construct: human ATR, full length, GenBank ID: NM_001184.3; p53: Sf21 insect cells
# Description: ATR/ATRIP Kinase Assay—Measurement of ATR/ATRIP Inhibition
# The IC50 value was determined by an ATR/ATRIP enzymatic assay. The assay comprises two steps: the enzymatic reaction and the detection step. First, a mixture of ATR/ATRIP protein (Ataxia Telangiectasia and Rad3-related protein/ATR interacting protein), the compound in question at different concentrations, p53 as substrate protein and adenosine triphosphate (ATP) are incubated in assay buffer. ATR phosphorylates p53 at Ser15 and other residues. The amount of phosphorylated p53 is then detected using specific antibodies and the TR-FRET assay technology.
# In detail: The ATR/ATRIP enzymatic assay is performed as a TR-FRET-(HTRF™, Cisbio Bioassays) based 384-well assay. In a first step, purified human recombinant ATR/ATRIP (human ATR, full length, GenBank ID: NM_001184.3, and human ATRIP, full length, GenBank ID AF451323.1, co-expressed in a mammalian cell line) is incubated in assay buffer for 15 minutes at 22° C. with test compound at different concentrations or without test compound (as a negative control). The assay buffer contains 25 mM HEPES pH 8.0, 10 mM Mg(CH3COO)2, 1 mM MnCl2, 0.1% BSA, 0.01% Brij® 35, and 5 mM dithiothreitol (DTT). […] Then, in a second step, purified human recombinant cmyc-tagged p53 (human p53, full length, GenBank ID: BC003596, expressed in Sf21 insect cells) and ATP are added and the reaction mixture is incubated for 25-35 minutes, typically 25 minutes, at 22° C. The pharmacologically relevant assay volume is 5 μl. The final concentrations in the assay during incubation of the reaction mixture are 0.3-0.5 nM, typically 0.3 nM, ATR/ATRIP, 50 nM p53, and 0.5 μM ATP. The enzymatic reaction is stopped by the addition of EDTA. […] Following signal development for 2 h the plates are analyzed in an EnVision (PerkinElmer) microplate reader using the TRF mode with laser excitation. […] Data are processed employing the Genedata Screener software. In particular, IC50 values are determined in the usual manner by fitting a dose-response curve to the data points using nonlinear regression analysis.
# [1] = test system: phosphorylation of Chk1 (Ser 345) in HT29 colon adenocarcinoma cells; assay: pCHK1 cellular assay; assay type: cell-based; details: Homo sapiens, HT-29, Table 1, class symbols, hydroxyurea
# From the text: Chk1 kinase acts downstream of ATR and has a key role in DNA damage checkpoint control. Activation of Chk1 involves phosphorylation of Ser317 and Ser345 (regarded as the preferential target for phosphorylation/activation by ATR) and occurs in response to blocked DNA replication and certain forms of genotoxic stress. Phosphorylation at Ser 345 serves to localize Chk1 to the nucleus following checkpoint activation.
# This assay measures a decrease in phosphorylation of Chk1 (Ser 345) in HT29 colon adenocarcinoma cells following treatment with compound and hydroxyurea (which promotes fork stalling because of dNTP depletion) and using an immunocytochemical procedure and high content imaging.
# For the assay HT29 cells are plated in culture medium (DMEM high Glucose (no phenol red), 2 mM Glutamax, 1 mM Pyruvate, 10% FCS into Greiner 384 well plates, black, μclear #781090 (2500 cells/well/30 μl) and incubated for at least 20 hours at 37° C., 10% CO2 and 90% rH. Diluted test compounds (1 nM-30 μM final) and hydroxyurea (3 mM final) are added simultaneously and cells are incubated for 4 h at 37° C. After fixation/prmeabilisation with 100% MeOH (−20° C. cold) and permeabilisation with 0.2% Triton X-100 a complete immunocytochemical procedure is performed using a specific anti-pChk1 antibody (Cell Signaling, #2348BF) and fluorescently labelled secondary antibody (Alexa Fluor® 488 goat anti-rabbit F(ab′)2 fragment, Invitrogen A11070) and parallel nuclear staining for cell counting.
# The nuclear localised pChk1 signal is detected on an ImageXpress Ultra confocal high content reader and reported as % positive cells (nuclei).
# T1 sequence (Q13535 whole entry): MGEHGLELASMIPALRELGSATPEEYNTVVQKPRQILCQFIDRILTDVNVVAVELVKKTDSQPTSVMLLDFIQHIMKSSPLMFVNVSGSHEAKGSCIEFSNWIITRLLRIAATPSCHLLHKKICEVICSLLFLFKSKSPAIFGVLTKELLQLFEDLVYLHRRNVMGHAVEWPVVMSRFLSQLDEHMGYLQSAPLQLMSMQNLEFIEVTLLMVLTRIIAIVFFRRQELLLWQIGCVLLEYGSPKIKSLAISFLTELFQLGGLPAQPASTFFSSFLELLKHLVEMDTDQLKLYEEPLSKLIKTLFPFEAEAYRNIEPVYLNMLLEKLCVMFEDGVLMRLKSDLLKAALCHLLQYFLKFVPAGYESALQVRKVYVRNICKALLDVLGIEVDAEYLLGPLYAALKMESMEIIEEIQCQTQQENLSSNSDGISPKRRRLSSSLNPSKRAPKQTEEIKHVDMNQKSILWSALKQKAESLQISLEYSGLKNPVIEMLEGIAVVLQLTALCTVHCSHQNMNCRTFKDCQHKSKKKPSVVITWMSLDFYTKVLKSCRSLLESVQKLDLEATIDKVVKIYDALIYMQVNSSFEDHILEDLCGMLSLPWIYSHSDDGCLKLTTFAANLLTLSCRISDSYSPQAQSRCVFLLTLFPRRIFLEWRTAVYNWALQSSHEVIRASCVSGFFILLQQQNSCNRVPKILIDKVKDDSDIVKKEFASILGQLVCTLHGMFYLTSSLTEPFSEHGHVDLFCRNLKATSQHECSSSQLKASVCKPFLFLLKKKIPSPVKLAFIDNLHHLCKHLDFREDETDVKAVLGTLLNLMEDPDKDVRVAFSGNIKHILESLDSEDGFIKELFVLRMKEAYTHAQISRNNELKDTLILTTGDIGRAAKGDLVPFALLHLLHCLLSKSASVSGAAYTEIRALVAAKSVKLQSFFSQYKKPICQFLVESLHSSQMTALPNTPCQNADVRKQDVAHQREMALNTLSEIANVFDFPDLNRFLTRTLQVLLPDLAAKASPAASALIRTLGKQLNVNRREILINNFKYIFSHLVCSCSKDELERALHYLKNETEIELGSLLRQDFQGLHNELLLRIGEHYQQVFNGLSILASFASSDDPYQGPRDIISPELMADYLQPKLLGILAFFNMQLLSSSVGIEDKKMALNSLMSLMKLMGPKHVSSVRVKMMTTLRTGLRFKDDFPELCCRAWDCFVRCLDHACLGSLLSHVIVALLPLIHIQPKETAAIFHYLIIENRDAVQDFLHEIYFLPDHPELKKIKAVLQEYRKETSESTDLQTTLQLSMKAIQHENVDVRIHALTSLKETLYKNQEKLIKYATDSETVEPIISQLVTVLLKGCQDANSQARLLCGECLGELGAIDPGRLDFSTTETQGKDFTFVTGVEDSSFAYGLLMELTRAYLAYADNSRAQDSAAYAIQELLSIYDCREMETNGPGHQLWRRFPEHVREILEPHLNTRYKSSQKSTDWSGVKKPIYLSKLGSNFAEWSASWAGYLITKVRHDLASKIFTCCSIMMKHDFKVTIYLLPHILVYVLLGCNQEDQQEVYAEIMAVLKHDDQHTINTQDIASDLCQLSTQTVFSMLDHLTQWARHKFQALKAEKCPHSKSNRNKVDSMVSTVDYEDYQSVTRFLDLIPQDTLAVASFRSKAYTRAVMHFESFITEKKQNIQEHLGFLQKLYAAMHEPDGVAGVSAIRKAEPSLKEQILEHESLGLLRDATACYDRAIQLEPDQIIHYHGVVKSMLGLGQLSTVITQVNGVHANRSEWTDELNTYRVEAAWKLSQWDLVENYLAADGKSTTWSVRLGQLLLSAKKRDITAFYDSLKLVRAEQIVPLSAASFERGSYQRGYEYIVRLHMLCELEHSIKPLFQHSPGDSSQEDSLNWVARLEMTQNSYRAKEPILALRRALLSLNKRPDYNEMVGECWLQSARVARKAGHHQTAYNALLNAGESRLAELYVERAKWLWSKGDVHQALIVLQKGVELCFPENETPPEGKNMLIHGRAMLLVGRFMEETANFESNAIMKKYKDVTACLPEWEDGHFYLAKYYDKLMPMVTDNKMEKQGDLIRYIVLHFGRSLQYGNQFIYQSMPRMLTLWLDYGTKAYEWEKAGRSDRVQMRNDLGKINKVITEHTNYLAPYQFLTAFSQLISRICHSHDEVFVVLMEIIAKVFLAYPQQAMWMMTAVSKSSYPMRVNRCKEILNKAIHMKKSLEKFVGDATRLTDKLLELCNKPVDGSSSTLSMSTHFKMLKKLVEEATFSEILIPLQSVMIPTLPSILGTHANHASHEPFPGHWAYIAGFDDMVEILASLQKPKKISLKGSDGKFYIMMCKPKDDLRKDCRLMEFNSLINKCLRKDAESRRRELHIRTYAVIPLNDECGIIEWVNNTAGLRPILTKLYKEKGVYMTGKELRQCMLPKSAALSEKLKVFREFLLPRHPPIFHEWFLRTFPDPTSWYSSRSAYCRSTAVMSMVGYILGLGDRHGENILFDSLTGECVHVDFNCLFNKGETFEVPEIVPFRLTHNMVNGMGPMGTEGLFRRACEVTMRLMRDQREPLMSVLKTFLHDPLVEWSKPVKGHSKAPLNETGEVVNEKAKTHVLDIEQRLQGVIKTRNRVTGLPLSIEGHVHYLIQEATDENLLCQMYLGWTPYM
# T1 sequence (Q8WXE1 whole entry partner): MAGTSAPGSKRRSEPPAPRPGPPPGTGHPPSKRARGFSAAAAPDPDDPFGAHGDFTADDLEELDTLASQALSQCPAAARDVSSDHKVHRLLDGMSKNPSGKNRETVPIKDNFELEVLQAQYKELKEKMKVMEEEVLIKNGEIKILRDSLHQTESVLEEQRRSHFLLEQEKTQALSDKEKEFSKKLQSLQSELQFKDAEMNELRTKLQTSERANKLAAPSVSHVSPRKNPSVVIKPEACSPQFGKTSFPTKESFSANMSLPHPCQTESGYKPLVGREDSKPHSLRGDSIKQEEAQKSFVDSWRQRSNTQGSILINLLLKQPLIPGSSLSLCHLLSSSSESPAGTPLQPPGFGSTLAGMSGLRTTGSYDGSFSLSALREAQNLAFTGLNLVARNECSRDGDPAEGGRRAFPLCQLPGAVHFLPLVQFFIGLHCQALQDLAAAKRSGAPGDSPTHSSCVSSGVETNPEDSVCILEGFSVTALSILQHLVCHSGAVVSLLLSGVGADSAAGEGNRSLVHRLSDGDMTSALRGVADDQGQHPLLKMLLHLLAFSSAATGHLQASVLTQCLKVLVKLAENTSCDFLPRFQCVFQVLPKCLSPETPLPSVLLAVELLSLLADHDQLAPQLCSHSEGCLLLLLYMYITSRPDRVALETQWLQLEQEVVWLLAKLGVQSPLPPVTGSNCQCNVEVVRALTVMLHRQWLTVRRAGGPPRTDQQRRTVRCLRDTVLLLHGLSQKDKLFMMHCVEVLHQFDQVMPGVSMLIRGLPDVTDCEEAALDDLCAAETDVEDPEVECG
Compound,IC50 (ATR/ATRIP) [µM],IC50 [1] [µM]
"C[C@@H]1COC[C@H]2COc3c(nc(-c4cccc(C5(N)COC5)c4)nc3C(C)(C)S(C)(=O)=O)N21 [A64, 3-{3-[(5R,8aS)-1-(1-methanesulfonyl-1-methyl-ethyl)-5-methyl-5,6,8a,9-tetrahydro-8H-7,10-dioxa-2,4,4b-triaza-phenanthren-3-yl]-phenyl}-oxetan-3-ylamine]",0.5 to 30,1 to 30
"CNc1nc2ccccc2n1-c1nc2c(c(C(C)(C)S(C)(=O)=O)n1)OC[C@H]1COC[C@@H](C)N21 [A8, {1-[(5R,8aR)-1-(1-Methanesulfonyl-1-methyl-ethyl)-5-methyl-5,6,8a,9-tetrahydro-8H-7,10-dioxa-2,4,4b-triaza-phenanthren-3-yl]-1H-benzimidazol-2-yl}-methyl-amine]",0.001 to 0.01,0.1 to 1
"C[C@@H]1COC[C@H]2COc3c(nc(N(C)c4ccn[nH]4)nc3C(C)(C)S(C)(=O)=O)N21 [A74, [(5R,8aS)-1-(1-methanesulfonyl-1-methylethyl)-5-methyl-5,6,8a,9-tetrahydro-8H-7,10-dioxa-2,4,4b-triaza-phenanthren-3-yl]-methyl-(2H-pyrazol-3-yl)-amine]",0.01 to 0.1,0.01 to 0.1
"C[C@@H]1COC[C@H]2COc3c(nc(Nc4cn[nH]n4)nc3C(C)(C)S(C)(=O)=O)N21 [A69, [(5R,8aS)-1-(1-methanesulfonyl-1-methyl-ethyl)-5-methyl-5,6,8a,9-tetrahydro-8H-7,10-dioxa-2,4,4b-triaza-phenanthren-3-yl]-(2H[1,2,3]triazol-4-yl)-amine]",0.01 to 0.1,0.1 to 1
"C[C@@H]1COC[C@H]2COc3c(nc(-c4ccc(-c5ccn[nH]5)cc4)nc3C(C)(C)S(C)(=O)=O)N21 [A60, (5R,8aS)-1-(1-methanesulfonyl-1-methyl-ethyl)-5-methyl-3-[4-(2H-pyrazol-3-yl)-phenyl]-5,6,8a,9-tetrahydro-8H-7,10-dioxa-2,4,4b-triaza-phenanthrene]",0.01 to 0.1,
"C[C@@H]1COC[C@H]2COc3c(Cn4cc(C(=O)O)nn4)nc(-c4ccnc5[nH]ccc45)nc3N21 [A4, 1-[(5R,8aS)-5-Methyl-3-(1H-pyrrolo[2,3-b]pyridin-4-yl)-5,6,8a,9-tetrahydro-8H-7,10-dioxa-2,4,4b-triaza-phenanthren-1-ylmethyl]-1H-[1,2,3]triazole-4-carboxylic Acid]",0.001 to 0.01,
"C[C@@H]1COC[C@H]2COc3c(nc(Nc4nc[nH]n4)nc3C(C)(C)S(C)(=O)=O)N21 [A79, [(5R,8aS)-1-(1-methanesulfonyl-1-methyl-ethyl)-5-methyl-5,6,8a,9-tetrahydro-8H-7,10-dioxa-2,4,4b-triaza-phenanthren-3-yl]-(1H[1,2,4]triazol-3-yl)-amine]",0.01 to 0.1,
CNc1ncn(-c2nc3c(c(C(C)(C)S(C)(=O)=O)n2)OC[C@@H]2COC[C@@H](C)N32)n1 [A43],0.1 to 0.5,
"C[C@@H]1COC[C@H]2COc3c(nc(C(=O)Nc4ncccn4)nc3C(C)(C)S(C)(=O)=O)N21 [A58, (4bS,6R)-1-(1-methanesulfonyl-1-methyl-ethyl)-5-methyl-5,6,8a,9-tetrahydro-8H-7,10-dioxa-2,4,4b-triaza-phenanthrene-3-carboxylic Acid pyrimidin-2-ylamide]",0.5 to 30,
"C[C@@H]1COC[C@H]2COc3c(nc(-c4ccc5c(c4)CCNC5)nc3C(C)(C)S(C)(=O)=O)N21 [A71, (5R,8aS)-1-(1-methanesulfonyl-1-methyl-ethyl)-5-methyl-3-(1,2,3,4-tetrahydro-isoquinolin-6-yl)-5,6,8a,9-tetrahydro-8H-7,10-dioxa-2,4,4b-triaza-phenanthrene]",0.1 to 0.5,
"C[C@@H]1COC[C@H]2COc3c(nc(C(=O)Nc4ccn[nH]4)nc3C(C)(C)S(C)(=O)=O)N21 [A47, (4bS,6R)-1-(1-methanesulfonyl-1-methyl-ethyl)-5-methyl-5,6,8a,9-tetrahydro-8H-7,10-dioxa-2,4,4b-triaza-phenanthrene-3-carboxylic Acid (2H-pyrazol-3-yl)-amide]",0.5 to 30,
"C[C@@H]1COC[C@H]2COc3c(nc(-c4c(C#N)cnc5[nH]ccc45)nc3C(C)(C)S(C)(=O)=O)N21 [A89, 4-[(10S,14R)-6-(2-methanesulfonylpropan-2-yl)-14-methyl-8,12-dioxa-1,3,5-triazatricyclo[8.4.0.0^{2,7}]tetradeca-2,4,6-trien-4-yl]-1H-pyrrolo[2,3-b]pyridine-5-carbonitrile]",0.001 to 0.01,
"C[C@@H]1COC[C@H]2COc3c(Cn4nncc4C(=O)O)nc(-c4ccnc5[nH]ccc45)nc3N21 [A2, 3-[(5R,8aS)-5-Methyl-3-(1H-pyrrolo[2,3-b]pyridin-4-yl)-5,6,8a,9-tetrahydro-8H-7,10-dioxa-2,4,4b-triaza-phenanthren-1-ylmethyl]-3H[1,2,3]triazole-4-carboxylic Acid]",0.01 to 0.1,

# Continued, values first:
IC50 (ATR/ATRIP) [µM],IC50 [1] [µM],Compound
< 0.001,0.1 to 1,"C[C@@H]1COC[C@H]2COc3c(nc(-c4ccc5nc(N)ccc5c4)nc3C(C)(C)S(C)(=O)=O)N21 [A72, 6-[(5R,8aS)-1-(1-methanesulfonyl-1-methyl-ethyl)-5-methyl-5,6,8a,9-tetrahydro-8H-7,10-dioxa-2,4,4b-triaza-phenanthren-3-yl]-quinolin-2-ylamine]"
< 0.001,0.1 to 1,"C[C@@H]1COC[C@H]2COc3c(nc(-c4c(N)cnc5[nH]ccc45)nc3C3(S(C)(=O)=O)CC3)N21 [A37, 4-[(10S,14R)-6-(1-methanesulfonylcyclopropyl)-14-methyl-8,12-dioxa-1,3,5-triazatricyclo[8.4.0.0^2,7]tetradeca-2,4,6-trien-4-yl]-1H-pyrrolo[2,3-b]pyridin-5-amine]"
< 0.001,0.01 to 0.1,"C[C@@H]1COC[C@H]2COc3c(nc(-c4ccc(CN)cc4)nc3C(C)(C)S(C)(=O)=O)N21 [A46, 4-[(5R,8aS)-1-(1-methanesulfonyl-1-methyl-ethyl)-5-methyl-5,6,8a,9-tetrahydro-8H-7,10-dioxa-2,4,4b-triaza-phenanthren-3-yl]-benzylamine]"
0.001 to 0.01,0.01 to 0.1,"CCNc1cnc2[nH]ccc2c1-c1nc2c(c(C(C)(C)S(C)(=O)=O)n1)OC[C@@H]1COC[C@@H](C)N21 [A90, ethyl-{4-[(S)-1-(1-methanesulfonyl-1-methyl-ethyl)-5-(R)-methyl-5,6,8a,9-tetrahydro-8H-7,10-dioxa-2,4,4b-triaza-phenanthren-3-yl]-1H-pyrrolo[2,3-b]pyridin-5-yl}-amine]"
< 0.001,0.01 to 0.1,"C[C@@H]1COC[C@H]2COc3c(nc(-c4c(F)ncc5[nH]ccc45)nc3C(C)(C)S(C)(=O)=O)N21 [A29, (5R,8aS)-3-(5-Fluoro-1H-pyrrolo[2,3-c]pyridin-4-yl)-1-(1-methanesulfonyl-1-methyl-ethyl)-5-methyl-5,6,8a,9-tetrahydro-8H-7,10-dioxa-2,4,4b-triaza-phenanthrene]"
< 0.001,0.1 to 1,"C[C@@H]1COC[C@H]2COc3c(nc(-c4c(O)cnc5[nH]ccc45)nc3C3(S(C)(=O)=O)CC3)N21 [A91, 4-[(5R,8aS)-1-(1-methanesulfonyl-cyclopropyl)-5-methyl-5,6,8a,9-tetrahydro-8H-7,10-dioxa-2,4,4b-triaza-phenanthren-3-yl]-1H-pyrrolo[2,3-b]pyridin-5-ol]"
